Laboratory results taken from patent US11306092B2, “Amino indole compounds useful as TLR inhibitors” (BRISTOL-MYERS SQUIBB COMPANY, priority 2017, dated 2022).
Structures can show the parent of a compound that is named as a salt.

Columns and labels:
Assay type in all cases: cell-based
[1] = molecular target: T1, human TLR7 (Homo sapiens, UniProt Q9NYK1); test: TLR7 inhibition reporter assay (HEK-Blue SEAP reporter); conditions: HEK-Blue cells overexpressing human TLR7; gardiquimod 7.5 μM; 22 hour incubation
T1 construct: host or cells: HEK-Blue cells
T1 sequence (Q9NYK1 27-1049): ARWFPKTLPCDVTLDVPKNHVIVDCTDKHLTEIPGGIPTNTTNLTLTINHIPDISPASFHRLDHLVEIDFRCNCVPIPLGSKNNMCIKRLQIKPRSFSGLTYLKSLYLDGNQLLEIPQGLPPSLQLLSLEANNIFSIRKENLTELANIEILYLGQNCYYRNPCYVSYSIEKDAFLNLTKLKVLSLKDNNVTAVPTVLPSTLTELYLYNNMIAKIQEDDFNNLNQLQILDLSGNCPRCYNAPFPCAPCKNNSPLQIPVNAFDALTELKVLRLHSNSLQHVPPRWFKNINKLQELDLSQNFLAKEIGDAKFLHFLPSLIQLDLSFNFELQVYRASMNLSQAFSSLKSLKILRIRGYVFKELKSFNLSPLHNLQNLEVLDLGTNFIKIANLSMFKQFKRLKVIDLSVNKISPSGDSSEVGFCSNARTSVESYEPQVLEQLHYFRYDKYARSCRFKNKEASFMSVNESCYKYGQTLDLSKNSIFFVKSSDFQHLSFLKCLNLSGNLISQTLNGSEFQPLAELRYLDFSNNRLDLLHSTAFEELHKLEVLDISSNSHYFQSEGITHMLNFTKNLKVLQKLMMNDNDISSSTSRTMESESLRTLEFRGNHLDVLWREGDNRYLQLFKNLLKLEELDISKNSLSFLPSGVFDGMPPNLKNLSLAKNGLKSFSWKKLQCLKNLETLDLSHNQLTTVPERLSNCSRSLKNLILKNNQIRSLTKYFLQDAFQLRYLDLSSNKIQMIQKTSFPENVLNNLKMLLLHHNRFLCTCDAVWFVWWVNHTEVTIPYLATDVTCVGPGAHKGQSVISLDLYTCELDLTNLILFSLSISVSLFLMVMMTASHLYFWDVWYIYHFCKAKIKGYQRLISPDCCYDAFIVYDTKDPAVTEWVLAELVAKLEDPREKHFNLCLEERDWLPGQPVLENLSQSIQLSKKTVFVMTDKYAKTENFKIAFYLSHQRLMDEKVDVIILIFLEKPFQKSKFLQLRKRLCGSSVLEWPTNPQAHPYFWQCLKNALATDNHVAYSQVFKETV
In short: (§1)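 Human TLR7/8/9 HEK-Blue reporter lines; dose range 0.05 nM–50 μM; 30 min RT preincubation; stimulus gardiquimod 7.5 μM / R848 15.9 μM / ODN2006 5 nM respectively; 22 h, 37 °C; SEAP detected colorimetrically.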

[2] = molecular target: T2, human TLR8 (Homo sapiens, UniProt Q9NR97); test: TLR8 inhibition reporter assay (HEK-Blue SEAP reporter); conditions: HEK-Blue cells overexpressing human TLR8; R848 15.9 μM; 22 hour incubation
T2 construct: host or cells: HEK-Blue cells
T2 sequence (Q9NR97 27-1041): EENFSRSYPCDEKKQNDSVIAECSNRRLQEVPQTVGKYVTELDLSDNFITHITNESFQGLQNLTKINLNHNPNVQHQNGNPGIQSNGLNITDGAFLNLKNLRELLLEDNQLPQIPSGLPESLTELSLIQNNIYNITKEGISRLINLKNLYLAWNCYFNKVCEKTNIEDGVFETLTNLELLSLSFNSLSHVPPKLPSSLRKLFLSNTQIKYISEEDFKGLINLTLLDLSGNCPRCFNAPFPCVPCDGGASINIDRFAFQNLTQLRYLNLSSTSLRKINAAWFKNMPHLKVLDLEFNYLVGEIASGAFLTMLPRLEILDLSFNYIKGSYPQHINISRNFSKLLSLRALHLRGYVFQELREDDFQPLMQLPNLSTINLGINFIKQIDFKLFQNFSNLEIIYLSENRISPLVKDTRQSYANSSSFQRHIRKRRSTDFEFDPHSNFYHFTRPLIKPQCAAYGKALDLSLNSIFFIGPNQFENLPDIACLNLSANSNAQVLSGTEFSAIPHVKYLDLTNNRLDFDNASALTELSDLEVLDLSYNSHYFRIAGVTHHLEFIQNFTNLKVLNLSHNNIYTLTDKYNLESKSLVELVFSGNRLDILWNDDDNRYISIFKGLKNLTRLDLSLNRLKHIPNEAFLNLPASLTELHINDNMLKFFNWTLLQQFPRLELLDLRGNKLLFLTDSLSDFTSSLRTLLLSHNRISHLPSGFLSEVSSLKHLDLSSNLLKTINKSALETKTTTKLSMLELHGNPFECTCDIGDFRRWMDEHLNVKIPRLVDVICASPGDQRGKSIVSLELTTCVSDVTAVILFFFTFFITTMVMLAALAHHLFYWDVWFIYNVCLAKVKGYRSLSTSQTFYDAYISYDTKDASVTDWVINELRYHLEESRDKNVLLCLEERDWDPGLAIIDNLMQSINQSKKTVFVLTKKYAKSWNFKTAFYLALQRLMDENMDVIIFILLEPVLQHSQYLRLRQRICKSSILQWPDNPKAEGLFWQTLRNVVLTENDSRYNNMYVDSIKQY
In short: as §1

[3] = molecular target: T3, human TLR9 (Homo sapiens, UniProt Q9NR96); test: TLR9 inhibition reporter assay (HEK-Blue SEAP reporter); conditions: HEK-Blue cells overexpressing human TLR9; ODN2006 5 nM; 22 hour incubation
T3 construct: host or cells: HEK-Blue cells
T3 sequence (Q9NR96 26-1032): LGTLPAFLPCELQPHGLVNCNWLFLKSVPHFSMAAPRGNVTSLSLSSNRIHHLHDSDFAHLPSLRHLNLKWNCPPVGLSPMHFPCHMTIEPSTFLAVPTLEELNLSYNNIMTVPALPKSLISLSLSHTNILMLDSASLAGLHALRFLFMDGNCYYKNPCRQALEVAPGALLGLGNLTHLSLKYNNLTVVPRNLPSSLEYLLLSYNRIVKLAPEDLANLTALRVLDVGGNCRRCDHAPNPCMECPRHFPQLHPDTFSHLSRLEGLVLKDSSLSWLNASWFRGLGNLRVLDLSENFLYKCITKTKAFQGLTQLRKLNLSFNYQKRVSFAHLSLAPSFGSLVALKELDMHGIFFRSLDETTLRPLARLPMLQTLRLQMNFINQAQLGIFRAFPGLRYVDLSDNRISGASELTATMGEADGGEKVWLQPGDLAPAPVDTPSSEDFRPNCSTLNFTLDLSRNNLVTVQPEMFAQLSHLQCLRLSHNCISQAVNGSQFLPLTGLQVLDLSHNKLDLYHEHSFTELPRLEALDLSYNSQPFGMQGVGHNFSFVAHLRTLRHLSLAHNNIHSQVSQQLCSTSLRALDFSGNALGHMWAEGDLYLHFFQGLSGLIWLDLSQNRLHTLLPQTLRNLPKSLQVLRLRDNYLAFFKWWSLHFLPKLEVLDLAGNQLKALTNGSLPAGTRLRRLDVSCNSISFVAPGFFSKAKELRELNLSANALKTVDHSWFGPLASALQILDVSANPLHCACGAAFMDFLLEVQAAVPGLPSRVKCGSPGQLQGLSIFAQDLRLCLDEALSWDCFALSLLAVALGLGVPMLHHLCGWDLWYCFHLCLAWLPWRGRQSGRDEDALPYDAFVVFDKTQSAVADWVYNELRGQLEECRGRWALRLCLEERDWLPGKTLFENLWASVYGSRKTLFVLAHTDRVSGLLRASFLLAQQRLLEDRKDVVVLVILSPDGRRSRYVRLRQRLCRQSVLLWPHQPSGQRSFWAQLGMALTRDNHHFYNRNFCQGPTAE
In short: as §1

SMILES	IC50 [1] [nM]	IC50 [2] [nM]	IC50 [3] [nM]
COc1ccc(-c2[nH]c3ccc(N4CCC(N(C)C)C4)cc3c2C(C)C)cc1OC (stereo not drawn) [Example 120, 1-(2-(3,4-dimethoxyphenyl)-3-isopropyl-H-indol-5-yl)-N,N-dimethylpyrrolidin-3-amine]	118	17	3290
COc1ccc(-c2[nH]c3ccc(N4CCC(N5CCCNCC5)CC4)cc3c2C(C)C)cc1OC [Example 121, 5-(4-(1,4-diazepan-1-yl)piperidin-1-yl)-2-(3,4-dimethoxyphenyl)-3-isopropyl-1H-indole]	15	5.2	993
COc1ccc(-c2[nH]c3ccc(N4CCN(C5CCCN(C(C)C)CC5)CC4)cc3c2C(C)C)cc1OC (stereo not drawn) [Example 122, 2-(3,4-dimethoxyphenyl)-3-isopropyl-5-(4-(1-isopropylazepan-4-yl)piperazin-1-yl)-1H-indole]	42	3.4	621
COc1ccc(-c2[nH]c3ccc(N4CCNCC4)cc3c2C(C)C)cc1OC [Example 126, 2-(3,4-dimethoxyphenyl)-3-isopropyl-5-(piperazin-1-yl)-1H-indole, TFA Salt]	53	14	4740
CNCCN1CCN(c2ccc3[nH]c(-c4ccc(OC)c(OC)c4)c(C(C)C)c3c2)CC1 [Example 127, 2-(4-(2-(3,4-dimethoxyphenyl)-3-isopropyl-1H-indol-5-yl)piperazin-1-yl)-N-methylethanamine]	45	15	6320
CC(C)c1c(-c2ccnc3[nH]ccc23)[nH]c2ccc(N3CCNCC3)cc12 [Example 128, 4-(3-isopropyl-5-(piperazin-1-yl)-1H-indol-2-yl)-1H-pyrrolo[2,3-b]pyridine]	2.3	0.41	8100
CCc1c(-c2cc(OC)nc(OC)c2)[nH]c2ccc(N3CCNCC3)cc12 [Example 129, 2-(2,6-dimethoxypyridin-4-yl)-3-ethyl-5-(piperazin-1-yl)-1H-indole]	75	22	3320
Cc1cc2[nH]c(-c3ccnc4[nH]ncc34)c(C(C)C)c2cc1N1CCNCC1 [Example 130, 4-(3-isopropyl-6-methyl-5-(piperazin-1-yl)-1H-indol-2-yl)-1H-pyrazolo[3,4-b]pyridine]	2	7.8	1160
CCc1c(-c2ccc(OC)c(OC)c2)[nH]c2ccc(N3CCC(C4CCNCC4)CC3)cc12 [Example 131, 5-([4,4′-bipiperidin]-1-yl)-2-(3,4-dimethoxyphenyl)-3-ethyl-1H-indole]	187	132	648
COc1ccc(-c2[nH]c3ccc(N4CCC(OC5CCNCC5)CC4)cc3c2C(C)C)cc1OC [Example 133, 2-(3,4-dimethoxyphenyl)-3-isopropyl-5-(4-(piperidin-4-yloxy)piperidin-1-yl)-1H-indole]	16	55	339
CCc1c(-c2ccc(OC)c(OC)c2)[nH]c2ccc(N3CCC(OC4CCN(C)CC4)CC3)cc12 [Example 134, 2-(3,4-dimethoxyphenyl)-3-ethyl-5-(4-((1-methylpiperidin-4-yl)oxy)piperidin-1-yl)-1H-indole]	54	94	462
COc1ccc(-c2[nH]c3ccc(N4CC5CCCNC5C4)cc3c2C(C)C)cc1OC (stereo not drawn) [Example 135, 6-(2-(3,4-dimethoxyphenyl)-3-isopropyl-1H-indol-5-yl)octahydro-1H-pyrrolo[3,4-b]pyridine]	774	95	2460
COc1ccc(-c2[nH]c3ccc(N4CC5(CCCNC5)C4)cc3c2C(C)C)cc1OC [Example 136, 2-(2-(3,4-dimethoxyphenyl)-3-isopropyl-H-indol-5-yl)-2,6-diazaspiro[3.5]nonane]	542	35	2650
CNCCN1CCN(c2ccc3[nH]c(-c4ccnc5[nH]ccc45)c(C(C)C)c3c2)CC1 [Example 138, 2-(4-(3-isopropyl-2-(1H-pyrrolo[2,3-b]pyridin-4-yl)-1H-indol-5-yl)piperazin-1-yl)-N-methylethan-1-amine]	2	0.62	939
CCc1c(-c2ccnc(C)c2)[nH]c2ccc(N3CCN(C4CCN(C)CC4)CC3)cc12 [Example 139, 3-ethyl-5-(4-(1-methylpiperidin-4-yl)piperazin-1-yl)-2-(2-methylpyridin-4-yl)-1H-indole]	2760	1070	157
Cc1c(-c2ccnc3[nH]ccc23)[nH]c2ccc(N3CCN(C4CCN(C)CC4)CC3)cc12 [Example 141, 4-(3-methyl-5-(4-(1-methylpiperidin-4-yl)piperazin-1-yl)-1H-indol-2-yl)-1H-pyrrolo[2,3-b]pyridine]	2170	1720	124
